The assay relates to cutaneous anaphylactic reaction. As to the kind of experiment: passive cutaneous anaphylaxis (PCA) test in the rat. It is filed as in vivo. The settings on record: dose decreasing diameter of blue area by 50% vs solvent controls, female rats. On the procedure: This activity is indicated in the passive cutaneous anaphylaxis (PCA) test in the rat.
The method employed in this test is based on those described by Mota, Immunology 7, 681 (1964) and Stofland and Share, J. Physiol. Pharmacol. 52, 1114 (1974). Female rats (180-200 g) are sensitized by subcutaneous administration of 1 mg of ovalbumin and 200 mg aluminium hydroxide, dissolved in 1 ml of physiological saline solution and intraperitoneal administration of 0.5 ml of Haemophilus pertussis vaccine (SchweizerischesSerum- und Impfinstitut, Bern, Switzerland; 4×10^10 organism/ml). Fourteen day later, the animals are decapited, the blood centrifuged and the serum (anti-ovalbumin serum) collected and deep frozen.
The diluted anti-ovalbumin serum is injected intradermally (0.1 ml per injection site) at […] on the backs of untreated, female rats. Twenty-four hours after the passive sensitisation, the rats receive either solvent or the test compound i.v. in a tail-vein or per os. Immediately afterwards or, in the case of p.o. administration, 60 minutes later, the animals receive an intravenous injection of 1 ml of antigen. The antigen (5 mg/ml) is dissolved in a 0.25% solution of Evans blue dye in physiological saline. In the controls this injection elicits a cutaneous anaphylactic reaction, the intensity of which is proportional to the distance to which the dye diffuses into the tissue surrounding the four sensitisation sites. Thirty minutes later, the rats are killed in CO2 and the diameter in mm of the blue spot at each injection site measured. The drug dose decreasing the diameter of the blue area by 50% compared with solvent pretreated control rats (ED50), is obtained from the regression line. The dose-effect correlation is tested for statistical significance.
In the above test, compounds of the formula I are found to be active on administration at dosages of from about 0.1 to about 3.2 mg/kg p.o. and from about 0.056 to about 1.00 mg/kg i.v. ED50 values for the representative compounds 4-{1-[2-[2-(2-hydroxy-ethoxy)ethoxy]ethyl]piperidin-4-yliden}-4H-benzo[4,5]cyclohepta[1,2-b]thiophen-10(9H)-one. HBr (Compound A) and 2-{2-[2-[4-(5H-dibenzo[a,d]cyclohept-5-yliden)piperidin-1-yl]ethoxy]ethoxy}ethanol hydrogenofumarate (Compound B) as well as for the reference compound 5,5'-[(2-hydroxy-1,3-propanediyl)bis-(oxy)]bis[4-oxo-4H-1-benzopyran-2-carboxylic acid]

Setting [1] is: iv, i.v. in a tail-vein, immediately before antigen, read-out: ED50 (i.v.).
Where [2] appears, read: po, 60 minutes before antigen, read-out: ED50 (p.o).

Experimental findings from US4609664A, “Antiasthmatic piperidylidene derivatives” (Sandoz Ltd., priority 1980, dated 1986) are described below.

Where two headings read alike, the source gives them in different places.

A word on the ED50: it is the dose at which the effect has come halfway, by size or by number of responders. Turning to `O=C1Cc2ccccc2C(=C2CCN(CCOCCOCCO)CC2)c2ccsc21` [Compound A, 4-{1-[2-[2-(2-hydroxy-ethoxy)ethoxy]ethyl]piperidin-4-yliden}-4H-benzo[4,5]cyclohepta[1,2-b]thiophen-10(9H)-one. HBr], the median effective dose (ED50) by setting is: under setting [1], around 0.21 mg/kg; under setting [2], around 1.8 mg/kg.
In the same order, the values of `OCCOCCOCCN1CCC(=C2c3ccccc3C=Cc3ccccc32)CC1` [Compound B, 2-{2-[2-[4-(5H-dibenzo[a,d]cyclohept-5-yliden)piperidin-1-yl]ethoxy]ethoxy}ethanol hydrogenofumarate] are around 0.22 mg/kg and around 0.49 mg/kg.
Regarding `O=C(O)c1cc(=O)c2c(OCC(O)COc3cccc4oc(C(=O)O)cc(=O)c34)cccc2o1` [Compound C, 5,5'-[(2-hydroxy-1,3-propanediyl)bis-(oxy)]bis[4-oxo-4H-1-benzopyran-2-carboxylic acid], reference compound], under setting [1], the 50% effective dose (ED50) was around 2.6 mg/kg.
